Molecular target: T1, 5-HT3-B and 5-HT3-C (Homo sapiens, UniProt O95264+Q8WXA8)
T1 construct: Characterization of the Function of Protein Encoded by p5HT3CR in Xenopus oocvtes; expressed in transfected cells; host or cells: Xenopus laevis oocytes co-injected with cRNAs
T1 sequence (O95264 22-441): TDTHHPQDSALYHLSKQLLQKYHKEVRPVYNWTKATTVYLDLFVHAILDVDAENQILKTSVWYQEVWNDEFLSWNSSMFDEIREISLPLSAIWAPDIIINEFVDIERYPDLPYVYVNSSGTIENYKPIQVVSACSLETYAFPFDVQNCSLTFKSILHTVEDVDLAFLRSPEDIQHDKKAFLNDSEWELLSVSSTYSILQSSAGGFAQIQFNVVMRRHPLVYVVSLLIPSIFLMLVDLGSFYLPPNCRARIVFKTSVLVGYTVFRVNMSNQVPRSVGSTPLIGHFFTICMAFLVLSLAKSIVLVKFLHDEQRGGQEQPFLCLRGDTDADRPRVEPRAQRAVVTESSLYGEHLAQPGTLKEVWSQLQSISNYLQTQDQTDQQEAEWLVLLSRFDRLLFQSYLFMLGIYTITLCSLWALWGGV
T1 sequence (Q8WXA8 28-447): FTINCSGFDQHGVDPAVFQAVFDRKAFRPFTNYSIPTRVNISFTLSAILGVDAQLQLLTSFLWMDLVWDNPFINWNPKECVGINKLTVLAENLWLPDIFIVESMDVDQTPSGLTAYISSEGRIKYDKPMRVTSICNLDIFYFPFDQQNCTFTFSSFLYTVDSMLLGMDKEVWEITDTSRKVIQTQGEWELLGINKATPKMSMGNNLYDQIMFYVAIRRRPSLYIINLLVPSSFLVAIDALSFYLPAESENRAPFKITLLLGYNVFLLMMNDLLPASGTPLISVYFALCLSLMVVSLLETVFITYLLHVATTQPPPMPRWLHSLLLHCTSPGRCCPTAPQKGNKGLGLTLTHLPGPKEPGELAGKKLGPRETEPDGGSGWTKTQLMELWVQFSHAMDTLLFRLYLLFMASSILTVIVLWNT
Test: Two-electrode voltage clamp, oocytes co-injected with 5-HT3-B and 5-HT3-C
Type: cell-based
Settings: 10 μM; 5-HT3-B 3.3 ng, 5-HT3-C 3.35 ng/oocyte
Protocol: Characterization of the Function of Protein Encoded by p5HT3CR in Xenopus oocvtes Xenopus laevis oocytes were prepared and injected using standard methods previously described and known in the art (Fraser et al., 1993). Ovarian lobes from adult female Xenopus laevis (Nasco, Fort Atkinson, Wis.) were teased apart, rinsed several times in nominally Ca-free saline containing (in mM): NaCl 82.5, KCl 2.5, MgCl2 1, HEPES 5, adjusted to pH 7.0 with NaOH(OR-2), and gently shaken in OR-2 containing 0.2% collagenase Type 1 (ICN Biomedicals, Aurora, Ohio) for 2–5 hours. When approximately 50% of the follicular layers were removed, Stage V and VI oocytes were selected and rinsed in media consisting of 75% OR-2 and 25% ND-96. The ND-96 contained (in mM): NaCl 100, KCl 2, MgCl2 1, CaCl2 1.8, HEPES 5, Na pyruvate 2.5, gentamicin (50 ug/ml), adjusted to pH 7.0 with NaOH. […] For in vitro transcription, pGEM HE (Liman et al., 1992) containing human 5-HT3-A (Genbank D49394) or 5-HT3-C cDNA was linearized with NheI and transcribed with T7 RNA polymerase (Stratagene) in the presence of the cap analog m7G(5′)ppp(5′)G. The synthesized cRNA was purified with a Sephadex G-50 spin column. […] Control oocytes were injected with 50 nl of water. Oocytes were incubated for 2–14 days in ND-96 before analysis for expression of the human 5-HT3-C. Incubations and collagenase digestion were carried out at room temperature. Injected oocytes were maintained in 48 well cell culture clusters (Costar, Cambridge, Mass.) at 18° C. Whole cell agonist-induced currents were measured 1–14 days after injection with a conventional two-electrode voltage clamp (GeneClamp500, Axon Instruments, Foster City, Calif.) using standard methods previously described and known in the art (Dascal, 1987). The microelectrodes were filled with 3 M KCl, which had resistances of 1 and 2 MΩ. Cells were continuously perfused with ND96 at 10 ml/min at room temperature unless indicated. Membrane voltage was clamped at −70 mV unless indicated.

- responsiveness of oocytes to agonist: unresponsive
Compound: NCCc1c[nH]c2ccc(O)cc12 [5-HT, 5-hydroxytryptamine]
